Tests used:
Assay type in all cases: in vivo, rat
[1] = Serum leptin levels by immunoassay in DIO prone and normal HSD rats after amylin (Example 3); conditions: amylin 100 μg/kg/day, 14 days, FIG. 8
Procedure: DIO prone and normal HSD rats were divided into three treatment groups. Two groups were implanted with subcutaneous osmotic mini-pumps (DURECT Corp., Cupertino, Calif.) designed to deliver vehicle or amylin (100 μg/kg/day) and the third group was pair-fed to the amount consumed by the amylin-treated group for a 14 day period. Serum leptin levels were determined by immunoassays using a commercial kit (Linco Research, Inc., St. Charles, Mo.). […] Thus, DIO prone rats are hyper-leptinemic.

[2] = DIO rats, amylin and sibutramine, body weight and body composition (Example 4)
Procedure: (§1) Rat amylin was dissolved in 50% DMSO in sterile water and sibutramine was dissolved in sterile water. Each group was implanted with subcutaneous osmotic mini-pumps designed to deliver vehicle, sibutramine (3 mg/kg/day) or amylin (100 μg/kg/day) for a 14 day period. Body weight and food intake were recorded daily. Body composition was measured prior to and after drug treatment using NMR (Echo Medical Systems, Houston, Tex.). For body composition measurements, rats were briefly placed (˜1 min) in a well-ventilated plexiglass tube that was then inserted into a specialized rodent NMR machine. Rats were scanned prior to pump implantation and on the final day of the experiment. This enabled the calculation of changes in actual grams of fat and dry lean tissue (e.g., grams of body fat after treatment−grams of body fat at baseline=change in grams of body fat) and changes in % body composition for fat and dry lean tissue (e.g., % body fat after treatment−% body fat at baseline=change in % body fat).

[3] = DIO rats, amylin and phentermine, body weight and body composition (Example 4)
Procedure: The combination of amylin and catecholaminergic agonist, phentermine, were also tested for effects on changes in body weight and body composition. Phentermine is classically referred to as a catecholaminergic agonist as it actually hits NA/5-HT receptors. DIO male rats were fattened and divided into four treatment groups, as described above. Each group was implanted with subcutaneous osmotic mini-pumps and/or inserted with an oral gavage, designed to deliver vehicle, phentermine (10 mg/kg/day), amylin (100 μg/kg/day) or phentermine (10 mg/kg/day)+amylin (100 μg/kg/day) for a 14 day period. The mini-pump contained either vehicle (50% DMSO in water) or amylin while the oral gavage administered either sterile water or phentermine. Body weight was recorded daily and body composition was measured prior to and after drug treatment using NMR.

[4] = DIO (Levin) rats, amylin and CB-1 antagonist rimonabant, body weight and body composition (Example 5)
Procedure: These rats were developed by Barry Levin from a line of Crl:CD®(SD)BR rats that are prone to become obese on a diet relatively high in fat and energy. They were housed individually in shoebox cages at 22 C in a 12/12-hour light dark cycle. […] Rats were habituated to oral gavage for 1 week prior to treatment. Rimonabant was administered at a range of doses (0.1, 0.3, 1.0, 3.0. 10 mg/kg/day) by oral gavage. Amylin (dissolved in 50% DMSO sterile water) or vehicle was administered by mini-pump (100 μg/kg/day). Rimonabant was always delivered just prior to lights out. Food intake and body weight were measured at 1 and 2 weeks post-treatment. Body composition was measured prior to and after drug treatment using NMR (Echo Medical Systems, Houston, Tex.). For body composition measurements, rats were briefly placed (˜1 min) in a well-ventilated plexiglass tube that was then inserted into a specialized rodent NMR machine. Rats were scanned prior to pump implantation and on the final day of the experiment. This enabled the calculation of changes in actual grams of fat and dry lean tissue (e.g., grams of body fat after treatment−grams of body fat at baseline=change in grams of body fat) and changes in % body composition for fat and dry lean tissue (e.g., % body fat after treatment−% body fat at baseline=change in % body fat).

[5] = DIO rats, amylin and PYY(3-36), body weight and body composition (Example 7)
Procedure: Each group was implanted with subcutaneous osmotic mini-pumps, designed to deliver vehicle, PYY(3-36) (1000 μg/kg/day), amylin (100 μg/kg/day) or PYY(3-36) (1000 μg/kg/day)+amylin (100 μg/kg/day) for a 14 day period. PYY(3-36) was administered by mini-pump at a range of doses (100, 200, 400, 800, 1000 μg/kg/day). Amylin 100 μg/kg/day (dissolved in 50% DMSO sterile water), PYY(3-36) (dissolved in 50% DMSO sterile water) or vehicle was administered by mini-pump. Food intake and body weight was recorded daily. Body composition was measured prior to and after drug treatment using NMR (Echo Medical Systems, Houston, Tex.). For body composition measurements, rats were briefly placed (˜1 min) in a well-ventilated plexiglass tube that was then inserted into a specialized rodent NMR machine. Rats were scanned prior to pump implantation and on the final day of the experiment. This enabled the calculation of changes in actual grams of fat and dry lean tissue (e.g., grams of body fat after treatment−grams of body fat at baseline […]) and changes in % body composition for fat and dry lean tissue (e.g., % body fat after treatment−% body fat at baseline=change in % body fat).

[6] = DIO rats, amylin and exendin-4 analog, body weight and body composition (Example 6)
Procedure: […]. Prior to drug administration rats had typically attained a mean body weight of 500 g Exendin-4 analog was administered by minipump at a range of doses (0.3, 1, 3, 10, 30 μg/kg/day). Amylin (dissolved in 50% DMSO in water) or vehicle was administered by mini-pump (100 μg/kg/day). Body weight and food intake was recorded daily. Body composition was measured prior to and after drug treatment using NMR (Echo Medical Systems, Houston, Tex.). For body composition measurements, rats were briefly placed (˜1 min) in a well-ventilated plexiglass tube that was then inserted into a specialized rodent NMR machine. Rats were scanned prior to pump implantation and on the final day of the experiment. This enabled the calculation of changes in actual grams of fat and dry lean tissue (e.g., grams of body fat after treatment−grams of body fat at baseline=change in grams of body fat) and changes in % body composition for fat and dry lean tissue (e.g., % body fat after treatment−% body fat at baseline=change in % body fat).

[7] = In-bred DIO (Levin) rats, amylin and leptin, body weight and NMR body composition (Example 2); conditions: two weeks, leptin 500 μg/kg/day, amylin 100 μg/kg/day, FIG. 6A
Procedure: They were housed individually in shoebox cages at 22 C in a 12/12-hour light dark cycle.
as §1, with “Body” for “Rat amylin was dissolved in 50% DMSO in sterile water and sibutramine was dissolved in sterile water. Each group was implanted with subcutaneous osmotic mini-pumps designed to deliver vehicle, sibutramine (3 mg/kg/day) or amylin (100 μg/kg/day) for a 14 day period. Body weight and food intake were recorded daily. Body”

[8] = Pair-feeding experiment in DIO rats, amylin+leptin (Example 2); conditions: two weeks, ad libitum access to food, FIG. 7
Procedure: Amylin is known to have an anorectic effect on a recipient. In order to examine the effect of amylin+leptin in the context of an anorectic effect of amylin, a pair-feeding experiment was performed. DIO rats and drug treatment groups were established as described above. DIO rats in the vehicle, amylin, and amylin+leptin treatment groups had ad libitum access to food, while intake in the pair-fed leptin treatment was restricted to the amount consumed by the amylin-treated group. Body weight was recorded daily for the two weeks of treatment. […] The combination of amylin+leptin results in a decrease of about 12% in body weight relative to vehicle control.

Substance: Rat amylin
- serum (plasma) leptin levels ([1]; DIO prone rats): significantly reduced
- serum (plasma) leptin levels ([1]; normal HSD rats): significantly reduced
- changes in body fat (fat mass) ([2]; after two weeks, FIG. 10B): Fat mass loss was evident
- changes in body protein (lean mass) ([2]; after two weeks, FIG. 10C): increase in lean (protein) mass
- vehicle-corrected decrease in percent body weight ([2]; two weeks, sibutramine 3 mg/kg/day, amylin 100 μg/kg/day, FIG. 10A): ~6%
- changes in body fat (fat mass) ([3]; after two weeks, FIG. 11B): greater amount of fat mass loss
- changes in body protein (lean mass) ([3]; after two weeks, FIG. 11C): preserved lean (protein) mass
- vehicle-corrected decrease in percent body weight ([3]; two weeks, phentermine 10 mg/kg/day oral gavage, amylin 100 μg/kg/day, FIG. 11A): ~7%
- changes in body fat (fat mass) ([4]; after two weeks, FIG. 12B): Fat mass loss was evident
- changes in body protein (lean mass) ([4]; after two weeks, FIG. 12C): relatively equivalent increase in lean (protein) mass
- vehicle-corrected decrease in percent body weight ([4]; two weeks, rimonabant 3 mg/kg/day oral gavage, amylin 100 μg/kg/day, FIG. 12A): ~6%
- changes in body protein (lean mass) ([5]; after two weeks, FIG. 16C): increase in lean (protein) mass
- changes in body fat (fat mass loss) ([5]; after two weeks, order PYY(3-36) alone, amylin alone, combination, FIG. 16B): Increasing amount of fat mass loss
- vehicle-corrected decrease in percent body weight ([5]; two weeks, PYY(3-36) 1000 μg/kg/day, amylin 100 μg/kg/day, FIG. 16A): ~7%
- changes in body fat (fat mass) ([6]; after two weeks, FIG. 15B): relatively equivalent decrease in fat mass
- changes in body protein (lean mass) ([6]; after two weeks, FIG. 15C): relatively equivalent increase in lean (protein) mass
- vehicle-corrected decrease in percent body weight ([6]; two weeks, exendin-4 analog 10 μg/kg/day, amylin 100 μg/kg/day, FIG. 15A): ~6%
- vehicle-corrected decrease in percent body weight [7]: 6%
- decrease in body weight relative to vehicle control [8]: ~6%

Reference: patent publication US8394765B2, “Methods of treating obesity with two different anti-obesity agents” (Amylin Pharmaceuticals LLC, priority 2004, dated 2013)
